The values below are quoted from earlier work in patent US6127388A, “Azetidine, pyrrolidine and piperidine derivatives as 5-HT1D receptor agonists” (Merck Sharp & Dohme Ltd., priority 1996, dated 2000).

The structures appear in SMILES notation.

The conditions of this data set: therapeutic doses.

`CNS(=O)(=O)Cc1ccc2[nH]cc(CCN(C)C)c2c1` [sumatriptan]: the “adverse cardiovascular events in humans” value is listed as “certain adverse cardiovascular events”.
